Measurements from patent US20090018142A9, “Use of phosphatases to treat tumors overexpressing N-CoR” (priority 2006, published 2009).
Entries after “also recorded” stand apart in the source; their conditions may differ. Where two headings read alike, the source gives them in different places.

Tests used:
[1] = test system: GBM cell line U373; assay: cells; format: cell-based, human; conditions: for Inhibition of U373 growth as single agent (in words): individual treatment, 7 days; for Concentration range of activity against U373 (in words): single agent (FIG. 5A, 5B)
Experimental: To identify novel therapeutic targets for the treatment of glioblastoma multiforme (GBM), cantharidin analogs were evaluated for their ability to inhibit growth of glioblastoma multiforme cells. Specifically, GBM cell line U373 was used in evaluations.
The total number of cells is counted in the triplicate cultures at each dose and in controls after 7 days and the average number of cells and the standard deviation is determined.
The amount of inhibition of GBM cell growth is expressed as the proportion of the number of cells in the experimental dishes compared to the number of cells in control dishes containing only the drug vehicle and culture medium. The average percent of control is plotted and bracketed by one standard deviation calculated from the triplicate measurements.

[2] = cited from earlier work; for Urinary tract toxicity (in words): in vivo
[3] = test system: PP2A; conditions: cited from earlier work
[4] = test system: PP1; conditions: cited from earlier work
[5] = for weeks; cited from earlier work
[6] = test system: kidney cancer cell line, UMRC; assay: Inhibition of growth of kidney cancer cell line UMRC, single agents, 7 days; format: cell-based; conditions: 7 days (FIG. 6A vs 6B)
Source text: (§1) To determine whether there is tumor type specificity of the inhibitory properties of PP2A inhibitors, retinoic acid and Trichostatin A, we measured their inhibitory effects as single agents against the GBM line U373, a breast cancer line, MCF-7 (obtained from ATCC) and a kidney cancer cell line, UMRC (UMRC obtained by Dr. Zhuang, NINDS, NIH from the Intramural Research Support Program, SAIC, National Cancer Institute, Frederick Cancer Research and Development Center).

[7] = test system: breast cancer line, MCF-7; assay: Inhibition of growth of breast cancer line MCF-7, single agents, 7 days; format: cell-based; conditions: for Inhibition of MCF-7 growth (in words): individual doses, 7 days (FIG. 6C); for Sensitivity of MCF-7 compared with U373 (in words): single agents, 7 days (FIG. 6C vs 6B)
Source text: as §1

[8] = test system: GBM cell line U343 MG-A; assay: Growth of GBM cell line U343 MG-A, cell counts over 16 days; format: cell-based, human; conditions: 50 μM retinoic acid and/or 10 nM okadaic acid
Experimental: Finally, the GBM cell line U343 MG-A was treated with 50 μM of retinoic acid (RA) and/or 10 nM of okadaic acid (OA), a protein phosphatase-1 inhibitor.
Three cultures for each of four treatments were grown for 16 days with cell counts obtained at baseline and for each of the eight even numbered days. Log transformations were applied to the cell counts, and repeated measures of analysis of variance model used to evaluate the treatment differences over time. Pair wise treatment comparisons used Sidak's statistic to account for multiple testing.

[9] = test system: primary hepatoma; conditions: cited from earlier work
[10] = test system: white blood cell production; conditions: patients and mice; cited from earlier work
[11] = test system: brain tumor stem cells (BTSC) isolated from GBM; assay: Differentiation of cultured brain tumor stem cells treated with CNTF (GFAP expression, N-CoR localization); format: cell-based
Experimental: (Hughes et al. (1988)) The BTSCs cells were then assessed for GFAP expression along with subcellular N—CoR localization.

[12] = Homo sapiens, U373 MG, 168 h, read-out: IC50, concentration that inhibited brain tumor cell proliferation by 50%
[13] = U373, 7 days exposure, estimated from graphic plots (FIG. 3), read-out: IC50, concentration that inhibited brain tumor cell proliferation by 50%

CN1CCN(C(=O)C2C(C(=O)O)[C@H]3CC[C@@H]2O3)CC1 (stereo partly drawn) [compound LB-1]
IC50 [1, 12]: 3 µM
activity at 1 µM ([1]; Homo sapiens, U373 MG, read-out: Percent of Control, Observed, U373, LB-1 1 uM alone (Table 1)): 78%
Percent of Control, Observed ([1]; U373, LB-1 1 μM alone (Table 3)): 97.9 +/− 1.0% of Control
Percent of Control, Observed ([1]; U373, LB-1 5 μM alone): 52.5 +/− 2.9% of Control
Inhibition of U373 growth as single agent (in words) ([1]; U373): modest inhibition of growth

C[C@@]12C(=O)OC(=O)[C@]1(C)[C@H]1CC[C@@H]2O1 [cantharidin]
Urinary tract toxicity (in words) [2]: toxic to the urinary tract
Inhibition of PP2A activity (in words) [3]: inhibit the activity of PP2A
Inhibition of PP1 activity (in words) [4]: to some extent

CCCC(CCC)C(=O)O [valproic acid]
Serum concentration tolerated in humans [5]: ~1000 µM
Inhibition of U373 growth as single agent (in words) ([1]; U373): dose dependent activity
Concentration range of activity against U373 (in words) ([1]; U373): in the mM range

O=C(O)C1C2CCC(O2)C1C(=O)O (stereo not drawn) [endothal]
Sensitivity of UMRC compared with U373 (in words) [6]: less sensitive
Inhibition of MCF-7 growth (in words) [7]: showed an inhibition in growth
Sensitivity of MCF-7 compared with U373 (in words) [7]: as sensitive as U373
Inhibition of PP2A activity (in words) [3]: inhibit the activity of PP2A
IC50 [1, 12]: 15 µM
activity at 1 µM ([1]; Homo sapiens, U373 MG, read-out: Percent of Control, U373, endothal 1 μM, 13-cis retinoic acid none): 100%
activity at 5 µM ([1]; Homo sapiens, U373 MG, read-out: Percent of Control, U373, endothal 5 μM, 13-cis retinoic acid none): 96%
activity at 10 µM ([1]; Homo sapiens, U373 MG, read-out: Percent of Control, U373, endothal 10 μM, 13-cis retinoic acid none): 76%
Percent of Control, Observed ([1]; U373, END 10 uM alone): 65%
Percent of Control ([1]; U373, endothal 10 μM, 13-cis retinoic acid none): 73%
Inhibition of U373 growth as single agent (in words) ([1]; U373): modest inhibition of growth
Inhibition of PP1 activity (in words) [4]: to some extent

O=C1SC(=O)[C@H]2[C@@H]1[C@@H]1CC[C@H]2O1 [endothal thioanhydride]
Liver toxicity (in words) ([2]; mice): toxic to the liver of mice
Sensitivity of UMRC compared with U373 (in words) [6]: less sensitive
Sensitivity of MCF-7 compared with U373 (in words) [7]: as sensitive as U373
Inhibition of PP2A activity (in words) [3]: inhibit the activity of PP2A
IC50 [1, 13]: 2.5 µM
Inhibition of U373 growth as single agent (in words) ([1]; U373): most potent inhibitor of GBMs in vitro; also recorded: greatest inhibition of growth
Inhibition of PP1 activity (in words) [4]: to some extent

CC1=C(/C=C/C(C)=C/C=C/C(C)=C/C(=O)O)C(C)(C)CCC1 [ATRA, all-trans retinoic acid]
Sensitivity of UMRC compared with U373 (in words) [6]: less sensitive
Inhibition of MCF-7 growth (in words) [7]: showed an inhibition in growth
Sensitivity of MCF-7 compared with U373 (in words) [7]: as sensitive as U373
IC50 ([1]; Homo sapiens, U373 MG, 168 h, U373, 7 days (FIG. 4A), read-out: IC50 of ATRA alone): > 50 µM
activity at 25 µM ([1]; Homo sapiens, U373 MG, U373, ATRA 25 uM alone, read-out: Percent of Control, Observed): 77%
Inhibition of U373 growth as single agent (in words) ([1]; U373): modest inhibition of growth

C=C1[C@@H](O)[C@@H]2O[C@]3(CC[C@H](/C=C/[C@@H](C)[C@@H]4CC(C)=C[C@@]5(O[C@H](C[C@@](C)(O)C(=O)O)CC[C@H]5O)O4)O3)CC[C@H]2O[C@@H]1[C@@H](O)C[C@H](C)[C@H]1O[C@@]2(CCCCO2)CC[C@H]1C [okadaic acid]
Course of cell counts over time (in words) ([8]; 16 days): monotonically increased
Effect on cell growth (in words) ([8]; 16 days (FIG. 2C)): modest effect on cell growth

O=C1OC(=O)[C@H]2[C@@H]1[C@H]1CC[C@H]2O1 [norcantharidin]
Relative toxicity in vivo (in words) ([2]; compared among endothal thioanhydride, norcantharidin, endothal): falling in between
Urinary tract toxicity (in words) [2]: little or no urinary tract toxicity
Sensitivity of UMRC compared with U373 (in words) [6]: less sensitive
Sensitivity of MCF-7 compared with U373 (in words) [7]: as sensitive as U373
1-year survival ([9]; 244 patients with primary hepatoma, historical controls 17%): 30%
Life span of patients with primary hepatoma ([9]; 244 patients, historical controls on standard chemotherapy 4.7 months): 11.1 months
White blood cell production (in words) [10]: stimulates white blood cell production
IC50 [1, 13]: 12 µM

CC(/C=C/C(=O)NO)=C\[C@@H](C)C(=O)c1ccc(N(C)C)cc1 [TSA, Trichostatin A]
Sensitivity of UMRC compared with U373 (in words) [6]: less sensitive
Inhibition of MCF-7 growth (in words) [7]: showed an inhibition in growth
Sensitivity of MCF-7 compared with U373 (in words) [7]: as sensitive as U373
Percent of Control, Observed ([1]; U373, TSA 0.033 μM (0.01 μg/ml) alone): 71.6 +/− 0.4% of Control
Inhibition of U373 growth as single agent (in words) ([1]; U373): dose dependent activity
Concentration range of activity against U373 (in words) ([1]; U373): active at nM concentrations

CC1=C(/C=C/C(C)=C/C=C/C(C)=C\C(=O)O)C(C)(C)CCC1 [Cis-RA, 13-cis retinoic acid]
Percent of Control, Observed ([1]; U373, Cis-RA 50 μM alone): 93.3 +/− 2.2% of Control
Inhibition of U373 growth as single agent (in words) ([1]; U373): modest inhibition of growth

B1: CNTF: ciliary neurotrophic factor, agent shown to induce astrocytic differentiation of neural stem cells in vitro (protein, UniProt P26441 1-200, looked up)
Ciliary neurotrophic factor: MAFTEHSPLTPHRRDLCSRSIWLARKIRSDLTALTESYVKHQGLNKNINLDSADGMPVASTDQWSELTEAERLQENLQAYRTFHVLLARLLEDQQVHFTPTEGDFHQAIHTLLLQVAAFAYQIEELMILLEYKIPRNEADGMPINVGDGGLFEKKLWGLKVLQELSQWTVRSIHDLRFISSHQTGIPARGSHYIANNKKM
GFAP expression in BTSC (in words) ([11]; BTSC cultured with CNTF, 2-DGE and LCMS (FIG. 2A)): began to express GFAP
Subcellular localization of N-CoR in BTSC (in words) ([11]; Western blot of cytoplasmic fraction of CNTF-treated BTSC (FIG. 2B)): translocation of N—CoR to the cytoplasm
Time of peak cytoplasmic N-CoR and GFAP expression ([11]; following CNTF stimulation): 7 days
